The values that follow come from US20110294794A1, “TREATMENT OF PROTEINOPATHIES USING A FARNESYL TRANSFERASE INHIBITOR” (Link Medicine Corporation, priority 2008, published 2011).

Series [1] concerns 3T3 H-ras (61L) xenograft tumor. Particulars: continuous infusion, cited from earlier work.
The test system of series [2] is GGTase. Description: In vitro GGTase inhibition by LNK-754 (Table 5A). In kind it is biochemical. From the text:
(§1) The selectivity of LNK-754 for FTase over GGTAse is shown below in Table 5A.

Series [3] addresses T1, GGTase (Homo sapiens, UniProt P49354+P53609). Description: In vitro GGTase inhibition by LNK-754 (Table 5A). In kind it is biochemical. Particulars: general statement.
Source text: as §1

Another series deals with α-synuclein. Description: Masliah D-line human WT α-synuclein transgenic mouse, α-synuclein immunoreactivity / ELISA. The series is classed as in vivo. Particulars: for number of α-synuclein positive neurons: lower-dose trial (FIG. 2B); for levels of α-synuclein in the hippocampus / α-synuclein inclusions vs. transgenic animals administered vehicle alone: α-synuclein transgenic mice. On the procedure: Animals and treatments: Male and female human WT alpha-synuclein over-expressing transgenic mice^32 at 6 months of age were given vehicle (10% beta-cyclodextrin) or LNK-754-TS (0.09, 0.9 and 9 mg/kg) per oral gavage twice daily for 3 months or animals at 7 months of age were given vehicle (2.5% beta-cyclodextrin) or LNK-754-TS (2 mg/kg) once every three days for 3 months. Male and female TAU transgenic mice expressing TAU441 bearing the missense mutations V337M^50 and R406W under the control of the murine Thy-1 promoter with a CB6xC57BL/6 background were 5 months old at the time when the oral treatment for three months with LNK-754-TS (0.9 and 0.09 mg/kg) as well as vehicle (2.5% beta-cyclodextrin) was started. Female human APP/PS1 (APP (London V7171)/PS1(A246E)) over-expressing transgenic mice were treated with LNK-754-TS (0.9 mg/kg) or vehicle (2.5% beta-cyclodextrin) for 2 months or 12 days.
Immunohistochemistry and quantification of stained cells: For evaluation of α-synuclein immunoreactivity (IR), 5 sagittal cryo-cut sections (10 μm slice thickness) from five different layers were used for counting of IR cells in the cortex and hippocampus. Brain sections were stained with a monoclonal human α-synuclein specific antibody (Alexis®; Cat# 804-258-L001; dilution 1:5), followed by a secondary Ab Cy 2-Goat Anti-Rat (Jackson ImmunoResearch®; dilution 1:200). IR positive cells were quantified using specialized image analysis software (Image Pro Plus, version 4.5.1.29). For Tau transgenic animals, 5 μm thick coronal paraffin sections were stained with the monoclonal mouse anti-human TAU-antibodies (AT180—1:100; HT—1:500) and visualized using an anti-mouse Cy3 secondary antibody (1:500, Jackson laboratories®). Images were evaluated with ImageProPlus (version 6.2) image analysis software. For APP/PS1 transgenic animals sagittal hemisections (40 μm) were collected and processed for Aβ immunohistochemistry using an 6E10 antibody, Thioflavin-S staining Primary antibodies were detected by the ABC method.
ELISA quantification of α-Synuclein in the α-Synuclein transgenic animals: Brain homogenate was centrifuged and the supernatant saved as fraction F1. The pellet was washed then resuspended and saved as fraction F2. Plates (Nunc, 464718) were coated with SYN-1 (1:1000, BD Transduction Labs, 610787). Monomeric recombinant α-synuclein was included as an internal standard. Biotinylated antibody FL-140 (1:300, Santa Cruz Biotechnology, sc-10717-B) and ExtrAvidin-Alkaline phosphatase (3:5000, Sigma, E2636) was added followed by pNPP substrate solution (Sigma, N1891). Raw absorbance (405 nm) was then normalized to the total protein concentration of each sample. In the APP/PS1 transgenic animal, brains were homogenized and the supernatant, Faction 1, was separated from the pellet. The pellets were further processed with addition of NP40 and Triton X-100. The supernatant was separated from the pellet as the insoluble membrane, Fraction 2, and was dissolved in 8M Guanidine. To quantify the amount of human Aβ-40 and Aβ-42, ELISA kits were used (The Genetics Company, Zurich, Switzerland).
In FIG. 2 is shown efficacy data for LNK-754-TS in the Masliah D-line transgenic α-synuclein mouse (an accepted model of synucleinopathies). Two trials are shown, the first (FIG. 2A) at higher doses of LNK-754-TS: 45 mg/kg and 9 mg/kg. […] The second trial (FIG. 2B) explores the low dose range for efficacy in the α-synuclein models. […]
After dosing with LNK-754-TS for three months (twice daily at 0.09 mg/kg or 0.9 mg/kg), α-synuclein accumulation in the brain was analyzed by immunohistochemical (human specific α-synuclein immunoreactivity) and biochemical (α-synuclein ELISA) means. […]
In general terms: In an ELISA, binding on a coated surface is turned into a signal by an enzyme label.

A further series deals with LC3. Description: Punctate LC3 immunostaining in SH-SY5Y cells. In kind it is cell-based, human. Particulars: 100 nM (FIG. 8b). On the procedure: (§2) Cell culture and immunocytochemistry: SH-SY5Y cells were grown in DMEM medium supplemented with 10% FBS and 1% pen/strep at 37° C. and 5% CO2. Cells were differentiated with 10 μM retinoic acid for 48 hr, then treated with the either rapamycin (100 nM or 1 μM) or with 100 nM of either LNK-754-TS or Tipifarnib for 48-72 hr. Cells were then fixed with 4% paraformaldehyde and stained for LC3 (Novus biological, NB100-2331, dilution 1:800) followed by secondary Alexa-564 anti-Rabbit (A-11011).
(§3) Autophagy was measured in a neuroblastoma cell culture system by three distinct approaches: quantitation of autophagy-related mRNA's, immunofluorescence microscopy of autophagosomes, and biochemical detection of the microtubule-associated protein 1 light chain 3 (LC3) a key protein that is required for autophagosome formation. Differentiated human neuroblastoma cells (SH-SY5Y) were treated for 72 hr with LNK-754-TS (0.01-100 nM), Zarnestra® (also referred to herein as tipifarnib) (100 nM) or rapamycin (1 μM).

The test system of another series is LC3 mRNA. Description: LC3 mRNA (qPCR) in differentiated SH-SY5Y cells. In kind it is cell-based, human. Particulars: 100 nM, 72 hr. On the procedure:
as §2
(§4) Quantitative real-time PCR: Gene expression profiles were done by qPCR on series of known autophagy genes. RNA was extracted with Tri-reagent (Sigma), and cDNAs generated using iScript (Biorad). qPCR analysis was carried out in a 96 well plate using an iCycler (BioRad, Hercules, Calif.), and iQ SYBR Green Supermix (Biorad) according to the manufacturer's specifications.
Such increases in LC3 mRNA levels are associated in the literature with stimulation of macroautophagy. This supports the hypothesis that at doses as low as 1 nM in this in vitro system there is stimulation of autophagy in these cells.
as §3

Series [4] in a line: Pharmacokinetics of Zarnestra in C57BL/6 mice, oral administration. In kind it is in vivo, mouse. Particulars: 5 mg/kg p.o. single dose. On the procedure:
LLOQ: brain 4 ng/g; plasma 50 ng/ml.
The pharmacokinetic profiles of LNK-754-TS and Zarnestra® were analyzed using methods known in the art. The results are shown in FIGS. 13-14 and the tables below.

Series [5] concerns the target T1, GGTase. Particulars: general statement; cited from earlier work.
A further series has as its system Atg1. Description: mRNA levels of autophagy-related genes (Atg1) in SH-SY5Y cells. The series is classed as cell-based, human. Particulars: 100 nM (FIG. 8d). The method, then: as §4
(§5) The mechanism of autophagy stimulation by LNK-754-TS appears distinct from that of the drug rapamycin. Rapamycin is a well-characterized autophagy stimulator that acts through inhibition of mTOR, a kinase involved in nutrient signaling and regulation of cell growth and survival. […] To further contrast the mechanism of autophagy stimulation by LNK-754-TS to that of rapamycin, a collection of mRNA transcripts of autophagy proteins were measured (FIG. 8d). Selected mRNAs from untreated SH-SY5Y cells were compared to mRNAs from cells treated with LNK-754-TS (100 nM), tipifarnib (100 nM), or rapamycin (1 μM).

Another series deals with LC3-II. Description: LC3-II protein level (autophagic flux) in SH-SY5Y cells with or without bafilomycin A1. In kind it is cell-based, human. Particulars: bafilomycin A1 (10 nM) alone, without test compound.
Source text: Data are represented as mean+/−SEM with statistical significance by paired student's t-test (n=4, p<0.05).
The observed increase in LC3-positive autophagosomes could result, in principle, from either an increased flux through the autophagy pathway or decreased autophagosome degradation (Pankiv, S., et al. J Biol Chem 282, 24131-24145 (2007); Kamada, Y., et al. J Cell Biol 150, 1507-1513 (2000)). […] In order to ascertain an increase in autophagic flux, cells were co-treated with LNK-754-TS and an inhibitor of autophagosome-lysosome fusion, bafilomycin A1 (10 nM). Bafilomycin treatment alone caused a 100% increase in the amount of LC3-II, consistent with the fact that it inhibits autophagosome degradation (FIG. 8c).
as §5

Molecules are shown by their SMILES. Entries after “also recorded” stand apart in the source; their conditions may differ. Read-outs that look alike come from different tables or passages of the source.

Consider `C#Cc1cccc(-c2cc(=O)n(C)c3ccc([C@](O)(c4ccc(Cl)cc4)c4cncn4C)cc23)c1` [LNK-754, (R)-6-[(4-chlorophenyl)-hydroxyl-(1-methyl-1-H-imidazol-5-yl)-methyl]-4-(3-ethynylphenyl)-1-methyl-2-(1H)-quinonlinone], for which the “continuous serum level at which significant inhibition of tumor growth was seen” value in series [1] (7 day treatment) is reported as “above 100 ng/mL”. Moreover, the “inhibition of Ras farnesylation at which significant inhibition of tumor growth was seen” value in series [1] (tumor tissue) is on record as “at least 50%”. Also, the GGTI/FTI came to 580 in the series with GGTase [2] (H-Ras substrates) and 40.11 in the series with GGTase [2] (K-Ras substrates). In addition, on GGTase [3], the GGTase inhibitory activity entry is listed as “little to no”. Besides, the “number of α-synuclein positive neurons” value in the series on α-synuclein (0.09 mg/kg) and in the series on α-synuclein (0.9 mg/kg) was “significantly lowered” each time. In addition, the “number of α-synuclein positive neurons in the brain” value was “significantly lower” in the series on α-synuclein (9 mg/kg PO BID 3 months, higher-dose trial (FIG. 2A)); “did not significantly lower; also recorded: not found to significantly lower” with α-synuclein (45 mg/kg PO BID 3 months, higher-dose trial (FIG. 2A)); “significant reduction” with α-synuclein (lower doses, 0.09 mg/kg to 9 mg/kg (FIGS. 2A and 2B)). The “levels of α-synuclein in the hippocampus” value in the series on α-synuclein was “decrease”. The “α-synuclein inclusions vs. transgenic animals administered vehicle alone” value in the series with α-synuclein is given as “fewer”.

For `Cn1cncc1[C@@](N)(c1ccc(Cl)cc1)c1ccc2c(c1)c(-c1cccc(Cl)c1)cc(=O)n2C` [Zarnestra®, (R)-6-(Amino(4-chlorophenyl)(1-methyl-1H-imidazol-5-yl)methyl)-4-(3-chlorophenyl)-1-methyl-2(1H)-quinolinone, reference compound], the entries for the “punctate LC3 immunostaining (number of LC3-positive puncta)” value in the series on LC3 and in the series with LC3 (listed as tipifarnib) were “distinct increase” and “increased”, respectively. Also, the “levels of α-synuclein in the hippocampus” value in the series on α-synuclein is “decrease”. For the same molecule, in the series with α-synuclein, the “α-synuclein inclusions vs. transgenic animals administered vehicle alone” value is “fewer”. Further, the figures for the “LC3 mRNA level” value in the series on LC3 mRNA and with LC3 mRNA (listed as tipifarnib) were “also works; also recorded: upregulated” and “increased”, respectively. The t1/2z came to 1.31 h in series [4] (Blood) and 8.10 h in series [4] (Brain). Moreover, the “AUC(0-t)” value in [4] (Brain) is 44.50 ng·h/g. For the same molecule, in [4] (Brain), the “AUC(0-[…])” value stood at 86.86 ng·h/g. For the same molecule, on GGTase [5], the GGTase inhibitory activity result is “little to no”. The “mRNA levels of a set of autophagy-related genes” value in the series on Atg1 is given as “unaffected”.

As for `CO/C1=C\C(C)=C\[C@@H](C)[C@@H](O)[C@@H](C)C/C(C)=C/C=C/[C@H](OC)[C@@H]([C@@H](C)[C@@H](O)[C@H](C)[C@@]2(O)C[C@@H](O)[C@H](C)[C@@H](C(C)C)O2)OC1=O` [bafilomycin A1, reference compound], in the series with LC3-II, the “increase in the amount of LC3-II” value was determined as 100%.
